# According to US12616751B2, “Photosensitizing antibody-fluorophore conjugates” (The USA, as represented by the Secretary, Department of …, priority 2010, dated 2026):
# Key:
# [1] = IR700 at absorption maximum 689 nm; Photofrin 630 nm; Foscan 652 nm; NPe6 654 nm; cited from earlier work
# [2] = Excretion of free and catabolized IR700; settings: in vivo
# [3] = system: 3T3/HER2+ cells; test: Photoimmunotherapy (PIT) phototoxicity, LIVE/DEAD assay; type: cell-based; settings: 200 nM, equivalent IR700 concentration of conjugate
# Procedure: Cells were grown in RPMI 1640 supplemented with 10% fetal bovine serum and 1% penicillin/streptomycin in tissue culture flasks in a humidified incubator at 37° C. in an atmosphere of 95% air and 5% carbon dioxide.
# Culture medium was replaced with phenol red-free medium after washing with phosphate buffered saline (PBS).
# [4] = Extinction coefficient of photosensitizers; type: physicochemical
# From the text: Currently commercially available from LI-COR (Lincoln, Nebr.). IR700 has several favorable chemical properties. Amino-reactive IR700 is a relatively hydrophilic dye and can be covalently conjugated with an antibody using the NHS ester of IR700. IR700 also has more than 5-fold higher extinction coefficient (2.1×10^5 M^−1cm^−1 at the absorption maximum of 689 nm), than conventional photosensitizers such as the hematoporphyrin derivative Photofrin® (1.2×10^3 M^−1cm^−1 at 630 nm), meta-tetrahydroxyphenylchlorin; Foscan® (2.2×10^4 M^−1cm^−1 at 652 nm), and mono-L-aspartylchlorin e6; NPe6/Laserphyrin® (4.0×10^4 M^−1cm^−1 at 654 nm).
# [5] = system: MDA-MB-468 tumors; test: In vivo delivery of Pan-IR800 after Pan-IR700 PIT; parameters: species or system mice; settings: 50 J/cm2 to right side tumor; agent 1 h after PIT
# From the text: In vivo fluorescence imaging. Five days after injection of two million A431 or 3T3-HER2 cells in right and left dorsums, and seven days after MDA-MB-468 cells injection in mammary pads, tumor volumes of approximately 75 mm^3 were selected. Signals of IR700 and IR800 was detected with a fluorescence camera (Pearl Imager, LI-COR Biosciences) using the 700 and 800 nm fluorescence channel Qdot800 was detected with Maestro in vivo Imaging System (CRi) using a band-pass filter, which ranges between 575 to 605 nm (excitation) and a long-pass NIR filter over 800 nm (emission). Fluorescence images of daunorubicin were also obtained with Maestro using a band-pass filter from 503 to 555 nm (excitation) and a long-pass green filter over 580 nm (emission). The tunable emission filter was automatically stepped in 10 nm increments from 650 to 950 nm and from 500 to 800 nm for the NIR and green filter sets at constant exposure. The spectral fluorescence images consist of autofluorescence spectra and the spectra from Qdot800 and daunorubicin, which were then unmixed, based on their spectral patterns using commercial software (Maestro software; CRi). Mice were sacrificed with carbon dioxide immediately after in vivo imaging. The tumors were excised, and frozen or paraffin-embedded for histological study and fluorescence microscopy study after ex vivo imaging. […]
# [6] = system: A431 tumors; test: In vivo nanodrug-delivery after PIT (super EPR); parameters: species or system mice
# Procedure: In vivo nanodrug-delivery after photoimmunotherapy. Six-week-old to 8-week-old female homozygote athymic nude mice were purchased from Charles River (National Cancer Institute Frederick). During treatment, mice were anesthetized with isoflurane. Two million A431 cells were injected subcutaneously in the right and left dorsums of each mouse. Five days after cell injection, 100 μg of Pan-IR700 was administered intravenously, and 1 day later, either side of tumor was irradiated with NIR light from a red-light-emitting diode at wavelengths of 670-690 nm and a power density of 10-100 J cm^−2, as measured with an optical power meter (PM 100 (Thorlabs)). One hour after PIT, Pan-IR800 (100 μg), Qtracker 800 Non-Targeted Quantum dots (32.5 pmol), or DaunoXome (30 mg kg^−1) were injected intravenously, and the in vivo fluorescence images were obtained with a Pearl Imager (LI-COR Biosciences) and a Maestro Imager (CRi). For MR imaging, SPIO (Feridex) was administered intravenously 1 h post-PIT and MR images were obtained. The tumors were excised, and frozen or paraffin-embedded for histological study and fluorescence microscopy study after ex vivo imaging.
# In vivo fluorescence imaging. Five days after injection of two million A431 or 3T3-HER2 cells in right and left dorsums, and seven days after MDA-MB-468 cells injection in mammary pads, tumor volumes of approximately 75 mm^3 were selected. Signals of IR700 and IR800 was detected with a fluorescence camera (Pearl Imager, LI-COR Biosciences) using the 700 and 800 nm fluorescence channel Qdot800 was detected with Maestro in vivo Imaging System (CRi) using a band-pass filter, which ranges between 575 to 605 nm (excitation) and a long-pass NIR filter over 800 nm (emission). Fluorescence images of daunorubicin were also obtained with Maestro using a band-pass filter from 503 to 555 nm (excitation) and a long-pass green filter over 580 nm (emission). The tunable emission filter was automatically stepped in 10 nm increments from 650 to 950 nm and from 500 to 800 nm for the NIR and green filter sets at constant exposure. The spectral fluorescence images consist of autofluorescence spectra and the spectra from Qdot800 and daunorubicin, which were then unmixed, based on their spectral patterns using commercial software (Maestro software; CRi). Mice were sacrificed with carbon dioxide immediately after in vivo imaging. The tumors were excised, and frozen or paraffin-embedded for histological study and fluorescence microscopy study after ex vivo imaging.
# Fluorescence microscopy. Ten-μm-thick frozen or paraffin sections were prepared and fluorescence in tumor sections was detected using an Olympus BX81 microscope (Olympus America, Inc., Melville, N.Y.) equipped with the following filters: excitation wavelength 590 to 650 nm, and 480 to 550 nm, emission wavelength 662.5 to 747.5 nm, 765 to 855 nm, and 590 nm long pass for IR700, Qdot800, and daunorubicin, respectively. Transmitted light differential interference contrast images were also acquired. H&E staining and Prussian Blue staining were performed according to standard protocol.
# Optimal timing of second shot. To determine the optimal timing of second shot, Pan-IR800 (100 μg) was administered intravenously into A431 bearing mice at 1, 6, and 24 h after PIT treatment, and the dynamic imaging for 1 h was carried out with Pearl Imager according to the protocol described above.
compound,measurement,setting,value
Photofrin®,extinction coefficient,[1],1200 M⁻¹ cm⁻¹
IRDye® 700DX [IR700],organ accumulation,[2],without accumulation in any specific organ
same,time to excretion into urine,[2],≤ 1 h
same,phototoxicity of dye alone,[3],did not incorporate into the cells or induce phototoxcity in cells
same,extinction coefficient higher than conventional photosensitizers,[4],more than 5 fold
same,extinction coefficient,[1],210000 M⁻¹ cm⁻¹
"C=Cc1c(C)c2cc3nc(c(CC(=O)N[C@@H](CC(=O)[O-])C(=O)[O-])c4[nH]c(cc5nc(cc1[nH]2)C(C)=C5CC)c(C)c4C(=O)[O-])[C@@H](CCC(=O)[O-])[C@@H]3C.[Na+].[Na+].[Na+].[Na+] [NPe6/Laserphyrin®, mono-L-aspartylchlorin e6]",extinction coefficient,[1],40000 M⁻¹ cm⁻¹
"Oc1cccc(-c2c3nc(c(-c4cccc(O)c4)c4ccc([nH]4)c(-c4cccc(O)c4)c4nc(c(-c5cccc(O)c5)c5ccc2[nH]5)CC4)C=C3)c1 [Foscan®, meta-tetrahydroxyphenylchlorin]",extinction coefficient,[1],22000 M⁻¹ cm⁻¹
Pan-IR800: panitumumab conjugated to IRDye 800CW,tumor shown in dynamic images,[5],only the right sided tumor was clearly shown up within 10 min
same,change of perfusion by PIT with time after treatment,"[6]; Pan-IR800 given 1, 6, and 24 h after PIT",completely stopped within 24 h
same,uptake/signal in control tumors without NIR light,[6]; agent i.v. 1 h after PIT of contralateral tumor,no change on signal intensities
same,accumulation in PIT-treated tumors,[6]; agent i.v. 1 h after Pan-IR700 PIT,facilitated the permeability
same,signal intensities in PIT-treated tumors versus light dose,"[6]; mouse, in vivo",increased with time in a light dose-dependent manner
same,tumor uptake when given 24 h after PIT,"[6]; mouse, in vivo",cannot be taken up by the tumor
